Results reported in ChEMBL document CHEMBL3638757, “Pyridazinones, method of making, and method of use thereof” (2015).

Biological target: Tyrosine-protein kinase BTK (Homo sapiens, UniProt Q06187)
Experiment: Biochemical Assay: A generalized procedure for a standard biochemical Btk Kinase Assay that can be used to test Formula I compounds is as follows. A master mix minus Btk enzyme is prepared containing IX Cell Signaling kinase buffer (25 mM Tris-HCl, pH 7.5, 5 mM beta- glycerophosphate, 2 mM dithiothreitol, 0.1 mM Na3V04, 10 mM MgCl2), 0.5 ul Promega PTK Biotinylated peptide substrate 2, and 0.01% BSA. A master mix plus Btk enzyme is prepared containing IX Cell Signaling kinase buffer, 0.5 ul PTK Biotinylated peptide substrate 2, 0.01% BSA, and 100 ng/well (0.06 mU/well) Btk enzyme. Btk enzyme is prepared as follows: full length human wildtype Btk (accession number NM-000061) with a C-terminal V5 and 6x His tag was subcloned into pFastBac vector for making baculo virus carrying this epitope-tagged Btk. Generation of baculovirus is done based on Invitrogen's instructions detailed in its published protocol "Bac-to-Bac Baculovirus Expression Systems".

Chain of Tyrosine-protein kinase BTK (Q06187 whole entry): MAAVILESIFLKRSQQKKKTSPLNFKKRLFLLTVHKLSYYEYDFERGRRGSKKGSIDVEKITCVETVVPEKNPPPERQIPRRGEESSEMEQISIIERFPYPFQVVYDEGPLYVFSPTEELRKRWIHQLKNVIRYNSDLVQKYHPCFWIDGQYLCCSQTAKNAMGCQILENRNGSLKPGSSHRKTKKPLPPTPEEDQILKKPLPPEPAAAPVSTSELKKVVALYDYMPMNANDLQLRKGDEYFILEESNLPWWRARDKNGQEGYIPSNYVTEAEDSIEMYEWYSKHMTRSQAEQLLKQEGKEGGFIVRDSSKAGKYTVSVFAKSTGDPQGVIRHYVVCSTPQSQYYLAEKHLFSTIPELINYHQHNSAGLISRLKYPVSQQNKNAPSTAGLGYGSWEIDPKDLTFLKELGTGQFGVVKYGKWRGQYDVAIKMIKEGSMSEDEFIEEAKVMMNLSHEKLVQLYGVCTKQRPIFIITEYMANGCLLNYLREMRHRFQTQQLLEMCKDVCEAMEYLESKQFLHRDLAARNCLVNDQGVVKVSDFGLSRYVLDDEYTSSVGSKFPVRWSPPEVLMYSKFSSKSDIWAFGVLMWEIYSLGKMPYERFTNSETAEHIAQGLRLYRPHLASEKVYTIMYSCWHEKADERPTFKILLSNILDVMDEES

Cc1cc(Nc2cc(-c3ccc(F)c(N4Cc5cc(C(C)(C)C)sc5C4=O)c3)n[nH]c2=O)nn1C
IC50: 9 nM
